According to US20240166693A1, “METHODS AND COMPOUNDS FOR MODULATING MYOTONIC DYSTROPY 1” (Design Therapeutics, Inc., priority 2020, published 2024):

System: Myotonic Dystrophy 1 affected patient fibroblasts (Coriell GM04602; 1600 CTG repeats)
Assay: DM1 foci reduction assay (CAG10-Cy3 FISH, average foci per nucleus)
Format: cell-based
Details: Homo sapiens, Fibroblast, 48 h, read-out: Foci Reduction in Fibroblast EC50, 48 h (nM)
Protocol: DM1 foci reduction assay methods: Myotonic Dystrophy 1 affected patient fibroblasts (Coriell GM04602; 1600 CTG repeats) and wild type fibroblasts (Coriell GM07492; control line) were cultured separately in Gibco DMEM (1×)+4.5 g/L D-Glucose+L-Glutamine+110 mg/L Sodium Pyruvate, supplemented with 10% FBS and 1× Pen/Strep. Cells were maintained in incubator at 37° C. and 5% CO2 with media refresh every 48-72 hours.
At 90-95% confluency, both cell lines were harvested using Trypl-E then pelleted at 500×g for 5 minutes and were resuspended in media. DM1 fibroblasts were seeded in Agilent 96 well black plates at a density of 5,000 cells/well in 200 μL media; 8 wells were reserved for control fibroblasts. Plates were returned to incubator for 24 hours at 37° C. and 5% CO2.
Compounds were diluted from 10 mM stock to 1 mM in DMSO, then diluted once more to 6 μM (2× concentration) in media. Media was removed from all plates and cells were replenished with 100 μL media. Cells were treated in 8-point dose response, 1:3 fold dilution, 3 μM top dose via addition of 100 μL of 6 μM (2× concentration) compound to the 100 μL media with cells. Plates were returned to incubator for 48-hour time-course experiment at 37° C. and 5% CO2.
Following treatment, compounds were removed, and plates were washed with PBS, then cells were fixed in 75 μL 4% PFA solution for 20 minutes at room temperature. Plates were washed twice with PBS and twice with cold 70% ethanol before permeabilization with 250 μL cold 70% ethanol for 24-72 hours at −20° C.
After permeabilization, plates were washed once with a 30% formamide and 2×SSC buffer and rehydrated in that buffer for 15 minutes at room temperature. Cells were incubated overnight at 37° C. in 75 μL of a hybridization solution containing 30% formamide, 2×SSC, 25 mg/mL dextran sulfate, 2.5 mg/mL BSA, 0.2 μg/mL Herring sperm DNA, 2 mM vanadyl-ribonucleoside complex, and 5 nM CAG10-Cy3 probe.
Plates were washed once with 30% formamide in 2×SSC buffer, then twice with the buffer for 30 minutes at 37° C., 300 RPM in an incubating plate shaker. Cells were stained with 75 μL of 2.5 μg/mL DAPI in PBS for 5 minutes at room temperature. Plates were then washed twice with PBS and stored in 250 μL PBS. Plates were sealed with adhesive foil and wiped down with 70% ethanol.
Cells were imaged on a Cytation5 with a 20× objective sampling from 4 areas of each well. Nuclei were captured under DAPI channel and foci under RFP channel. Plates were analyzed on an average foci per nucleus per well basis.

Structure (SMILES)	EC50
CCN(CC)CCCC[C@H](NC(=O)[C@H](CC(C)C)NC(=O)[C@H](C)NC(=O)[C@H](Cc1ccccc1)NC(=O)c1ccc(C(C)(C)C)cc1)C(=O)N[C@@H](CO)C(=O)NCCOCCOCCNC(=O)CCNC(=O)c1nc(NC(=O)c2cc(NC(=O)CCNC(=O)c3[nH]c(NC(=O)CCCNC(=O)c4cc(NC(=O)c5nc(NC(=O)CCNC(=O)c6cc(NC(=O)c7nccn7C)cn6C)cn5C)cn4C)cc3C)cn2C)cn1C [Compound 64]	< 100 nM
CCN(CC)CCCC[C@H](NC(C)=O)C(=O)N[C@@H](CO)C(=O)NCCOCCOCCOCCOCCOCCNC(=O)CCNC(=O)c1nc(NC(=O)c2cc(NC(=O)CCCC(=O)c3nc(NC(=O)CCCNC(=O)c4cc(NC(=O)c5nc(NC(=O)CCNC(=O)c6cc(NC(=O)c7nccn7C)cn6C)cn5C)cn4C)cn3C)cn2C)cn1C [Compound 65]	> 500 nM
CCN(CC)CCCC[C@H](NC(=O)COCCOCCNC(=O)c1ccc(C(C)(C)C)cc1)C(=O)N[C@@H](CO)C(=O)NCCOCCOCCOCCOCCOCCNC(=O)CCNC(=O)c1nc(NC(=O)c2cc(NC(=O)CCNC(=O)c3nc(NC(=O)CCCNC(=O)c4cc(NC(=O)c5nc(NC(=O)CCNC(=O)c6cc(NC(=O)c7nccn7C)cn6C)cn5C)cn4C)cn3C)cn2C)cn1C [Compound 66]	100 to 500 nM
CC(=O)N[C@@H](CCCCN(C)C1CC2CCC1C2)C(=O)N[C@@H](CO)C(=O)NCCOCCOCCOCCOCCOCCNC(=O)CCNC(=O)c1nc(NC(=O)c2cc(NC(=O)CCNC(=O)c3nc(NC(=O)CCCNC(=O)c4cc(NC(=O)c5nc(NC(=O)CCNC(=O)c6cc(NC(=O)c7nccn7C)cn6C)cn5C)cn4C)cn3C)cn2C)cn1C (some centres unmarked) [Compound 67]	100 to 500 nM
CN(CCCC[C@H](NC(=O)COCCOCCNC(=O)c1ccc(C(C)(C)C)cc1)C(=O)N[C@@H](CO)C(=O)NCCOCCOCCOCCOCCOCCNC(=O)CCNC(=O)c1nc(NC(=O)c2cc(NC(=O)CCNC(=O)c3nc(NC(=O)CCCNC(=O)c4cc(NC(=O)c5nc(NC(=O)CCNC(=O)c6cc(NC(=O)c7nccn7C)cn6C)cn5C)cn4C)cn3C)cn2C)cn1C)C1CC2CCC1C2 (some centres unmarked) [Compound 68]	100 to 500 nM
CCN(CC)CCCC[C@H](NC(=O)[C@H](CC(C)C)NC(=O)[C@H](C)NC(=O)[C@H](Cc1ccccc1)NC(=O)c1ccc(C(C)(C)C)cc1)C(=O)N[C@@H](CO)C(=O)NCCNC(=O)CCNC(=O)c1nc(NC(=O)c2cc(NC(=O)CCNC(=O)c3nc(NC(=O)CCCNC(=O)c4cc(NC(=O)c5nc(NC(=O)CCNC(=O)c6cc(NC(=O)c7nccn7C)cn6C)cn5C)cn4C)cn3C)cn2C)cn1C [Compound 70]	< 100 nM
CCN(CC)CCCC[C@H](NC(=O)[C@H](CC(C)C)NC(=O)[C@H](C)NC(=O)[C@H](Cc1ccccc1)NC(=O)c1ccc(C(C)(C)C)cc1)C(=O)N[C@@H](CO)C(=O)NCCOCCOCCOCCOCCNC(=O)CCNC(=O)c1nc(NC(=O)c2cc(NC(=O)CCNC(=O)c3nc(NC(=O)CCCNC(=O)c4cc(NC(=O)c5nc(NC(=O)CCNC(=O)c6cc(NC(=O)c7nccn7C)cn6C)cn5C)cn4C)cn3C)cn2C)cn1C [Compound 72]	< 100 nM
CCN(CC)CCCC[C@H](NC(=O)[C@H](CC(C)C)NC(=O)[C@H](C)NC(=O)[C@H](Cc1ccccc1)NC(=O)c1ccc(C(C)(C)C)cc1)C(=O)N[C@@H](CO)C(=O)NCCOCCOCCOCCNC(=O)CCNC(=O)c1nc(NC(=O)c2cc(NC(=O)CCNC(=O)c3nc(NC(=O)CCCNC(=O)c4cc(NC(=O)c5nc(NC(=O)CCNC(=O)c6cc(NC(=O)c7nccn7C)cn6C)cn5C)cn4C)cn3C)cn2C)cn1C [Compound 73]	< 100 nM
CCN(CC)CCCC[C@H](NC(=O)[C@H](CC(C)C)NC(=O)[C@H](C)NC(=O)[C@H](Cc1ccccc1)NC(=O)c1ccc(C(C)(C)C)cc1)C(=O)N[C@@H](CO)C(=O)NCCOCCOCCN(C)C(=O)CCNC(=O)c1nc(NC(=O)c2cc(NC(=O)CCNC(=O)c3nc(NC(=O)CCCNC(=O)c4cc(NC(=O)c5nc(NC(=O)CCNC(=O)c6cc(NC(=O)c7nccn7C)cn6C)cn5C)cn4C)cn3C)cn2C)cn1C [Compound 74]	< 100 nM
CCN(CC)CCCC[C@H](NC(=O)[C@H](CC(C)C)NC(=O)[C@H](C)NC(=O)[C@H](Cc1ccccc1)NC(=O)c1ccc(C(C)(C)C)cc1)C(=O)N[C@@H](CO)C(=O)N(C)CCOCCOCCNC(=O)CCNC(=O)c1nc(NC(=O)c2cc(NC(=O)CCNC(=O)c3nc(NC(=O)CCCNC(=O)c4cc(NC(=O)c5nc(NC(=O)CCNC(=O)c6cc(NC(=O)c7nccn7C)cn6C)cn5C)cn4C)cn3C)cn2C)cn1C [Compound 75]	< 100 nM
CCN(CC)CCCC[C@H](NC(=O)[C@H](CC(C)C)NC(=O)[C@H](C)NC(=O)[C@H](Cc1ccccc1)NC(=O)c1ccc(C(C)(C)C)cc1)C(=O)N[C@@H](CO)C(=O)N(C)CCOCCOCCN(C)C(=O)CCNC(=O)c1nc(NC(=O)c2cc(NC(=O)CCNC(=O)c3nc(NC(=O)CCCNC(=O)c4cc(NC(=O)c5nc(NC(=O)CCNC(=O)c6cc(NC(=O)c7nccn7C)cn6C)cn5C)cn4C)cn3C)cn2C)cn1C [Compound 76]	< 100 nM
CC(C)C[C@H](NC(=O)[C@H](C)NC(=O)[C@H](Cc1ccccc1)NC(=O)c1ccc(C(C)(C)C)cc1)C(=O)N[C@@H](CCCCN(C)C1CC2CCC1C2)C(=O)N[C@@H](CO)C(=O)NCCOCCOCCNC(=O)CCNC(=O)c1nc(NC(=O)c2cc(NC(=O)CCNC(=O)c3nc(NC(=O)CCCNC(=O)c4cc(NC(=O)c5nc(NC(=O)CCNC(=O)c6cc(NC(=O)c7nccn7C)cn6C)cn5C)cn4C)cn3C)cn2C)cn1C (some centres unmarked) [Compound 77]	< 100 nM
CCN(CC)CCCC[C@H](NC(=O)[C@H](CC(C)C)NC(=O)[C@H](C)NC(=O)[C@H](Cc1ccccc1)NC(=O)c1ccc(C(C)(C)C)cc1)C(=O)N[C@@H](CO)C(=O)NCCOCCOCCNC(=O)c1cc(NC(=O)c2cc(NC(=O)c3nc(NC(=O)c4cc(NC(=O)[C@@H](N)CCNC(=O)c5nc(NC(=O)c6cc(NC(=O)c7cc(NC(=O)c8nccn8C)cn7C)cn6C)cn5C)cn4C)cn3C)cn2C)cn1C [Compound 78]	> 500 nM
CCN(CC)CCCC[C@H](NC(=O)[C@H](CC(C)C)NC(=O)[C@H](C)NC(=O)[C@H](Cc1ccccc1)NC(=O)c1ccc(C(C)(C)C)cc1)C(=O)N[C@@H](CO)C(=O)NCCOCCOCCNC(=O)c1cc(NC(=O)c2nc(NC(=O)c3cc(NC(=O)[C@@H](N)CCNC(=O)c4nc(NC(=O)c5cc(NC(=O)c6cc(NC(=O)c7nccn7C)cn6C)cn5C)cn4C)cn3C)cn2C)cn1C [Compound 79]	> 500 nM
CCN(CC)CCCC[C@H](NC(=O)COCCOCCNC(=O)c1ccc(C(C)(C)C)cc1)C(=O)N[C@@H](CO)C(=O)NCCOCCOCCNC(=O)CCNC(=O)c1nc(NC(=O)c2cc(NC(=O)CCNC(=O)c3nc(NC(=O)CCCNC(=O)c4cc(NC(=O)c5nc(NC(=O)CCNC(=O)c6cc(NC(=O)c7nccn7C)cn6C)cn5C)cn4C)cn3C)cn2C)cn1C [Compound 81]	< 100 nM
CCN(CC)CCCC[C@H](NC(=O)[C@H](CC(C)C)NC(=O)[C@H](C)NC(=O)[C@H](Cc1ccccc1)NC(=O)c1ccc(C(C)(C)C)cc1)C(=O)N[C@@H](CO)C(=O)NCCOCCOCCNC(=O)c1cc(NC(=O)c2cc(NC(=O)c3nc(NC(=O)c4cc(NC(=O)[C@@H](N)CCNC(=O)c5nc(NC(=O)CCNC(=O)c6cc(NC(=O)c7nccn7C)cn6C)cn5C)cn4C)cn3C)cn2C)cn1C [Compound 82]	> 500 nM
CC(C)C[C@H](NC(=O)[C@H](C)NC(=O)[C@H](Cc1ccccc1)NC(=O)c1ccc(C(C)(C)C)cc1)C(=O)N[C@@H](CCCCN(C)C1CC2CCC1C2)C(=O)N[C@@H](CO)C(=O)NCCOCCOCCNC(=O)c1cc(NC(=O)c2cc(NC(=O)c3nc(NC(=O)c4cc(NC(=O)[C@@H](N)CCNC(=O)c5nc(NC(=O)CCNC(=O)c6cc(NC(=O)c7nccn7C)cn6C)cn5C)cn4C)cn3C)cn2C)cn1C (some centres unmarked) [Compound 83]	> 500 nM
